Read-outs that look alike come from different tables or passages of the source. Where only a bound is given, the exact number is not on record here.

The record followed here is US20250340538A1, “IMIDAZOLONE DERIVATIVES AS INHIBITORS OF PROTEIN KINASES IN PARTICULAR DYRK1A, CLK1 AND/OR CLK4” (PERHA PHARMACEUTICALS, priority 2021, published 2025).

Common to all, as to type: biochemical
One test has as its target T1, CLK1 (Homo sapiens, UniProt P49759).
T1 construct: GST-fusion or His-tag (not specified per kinase); purchased ProQinase GmbH; host or cells: Sf9 insect cells or E. coli (not specified per kinase)
The experiment in a line: Radiometric protein kinase assay (33PanQinase Activity Assay), CLK1. The note with it: read-out: Potency Class CLK1. In short, it runs like this: (§1)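 Human kinase (Sf9- or E. coli-expressed, tagged, purified) + substrate + [γ-33P]-ATP; cpd 10 μM→30 nM, 10 pts, 1% DMSO; 30 °C, 60 min; H3PO4 stop; scintillation count; IC50 from curve.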

For a further test, the target named is T2, CLK4 (Homo sapiens, UniProt Q9HAZ1).
T2 construct: GST-fusion or His-tag (not specified per kinase); purchased ProQinase GmbH; host or cells: Sf9 insect cells or E. coli (not specified per kinase)
T2 sequence (Q9HAZ1 whole entry, the tested form may be a part): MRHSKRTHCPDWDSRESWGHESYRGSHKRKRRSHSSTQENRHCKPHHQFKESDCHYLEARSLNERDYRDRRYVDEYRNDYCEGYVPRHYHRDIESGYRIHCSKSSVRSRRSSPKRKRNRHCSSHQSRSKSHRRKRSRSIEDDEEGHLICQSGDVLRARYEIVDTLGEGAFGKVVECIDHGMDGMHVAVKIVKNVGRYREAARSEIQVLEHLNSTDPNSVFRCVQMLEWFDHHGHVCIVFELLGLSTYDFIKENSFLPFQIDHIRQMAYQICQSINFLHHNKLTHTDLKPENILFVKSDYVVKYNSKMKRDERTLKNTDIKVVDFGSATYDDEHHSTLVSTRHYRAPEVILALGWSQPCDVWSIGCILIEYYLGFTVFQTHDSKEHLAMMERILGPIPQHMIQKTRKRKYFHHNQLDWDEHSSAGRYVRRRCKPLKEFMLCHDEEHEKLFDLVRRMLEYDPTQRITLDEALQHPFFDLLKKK
The experiment in a line: Radiometric protein kinase assay (33PanQinase Activity Assay), CLK4. The note with it: read-out: IC50 on CLK4 (most potent CLK4 inhibitors). In short, it runs like this:
as §1

In another test the target is T3, CLK2 (Homo sapiens, UniProt P49760).
T3 construct: GST-fusion or His-tag (not specified per kinase); purchased ProQinase GmbH; host or cells: Sf9 insect cells or E. coli (not specified per kinase)
T3 sequence (P49760 whole entry, the tested form may be a part): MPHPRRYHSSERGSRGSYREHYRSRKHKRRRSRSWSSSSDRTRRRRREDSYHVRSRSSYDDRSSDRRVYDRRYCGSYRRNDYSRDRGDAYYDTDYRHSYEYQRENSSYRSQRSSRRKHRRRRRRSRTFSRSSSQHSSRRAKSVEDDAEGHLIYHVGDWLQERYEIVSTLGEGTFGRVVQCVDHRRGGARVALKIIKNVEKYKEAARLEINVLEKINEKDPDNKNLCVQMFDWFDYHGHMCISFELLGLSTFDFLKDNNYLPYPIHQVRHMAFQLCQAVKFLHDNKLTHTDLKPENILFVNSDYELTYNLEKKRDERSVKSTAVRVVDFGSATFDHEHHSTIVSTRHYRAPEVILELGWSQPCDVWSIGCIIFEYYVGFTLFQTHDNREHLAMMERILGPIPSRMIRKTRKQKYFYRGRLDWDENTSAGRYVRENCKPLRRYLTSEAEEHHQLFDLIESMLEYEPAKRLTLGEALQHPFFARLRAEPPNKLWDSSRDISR
The test is described as follows: Radiometric protein kinase assay (33PanQinase Activity Assay), CLK2. To be noted: read-out: IC50 on CLK2 (most potent CLK2 inhibitors). In short, it runs like this:
as §1

The target of another test is T4, DYRK1B (Homo sapiens, UniProt Q9Y463).
T4 construct: GST-fusion or His-tag (not specified per kinase); purchased ProQinase GmbH; host or cells: Sf9 insect cells or E. coli (not specified per kinase)
T4 sequence (Q9Y463 whole entry, the tested form may be a part): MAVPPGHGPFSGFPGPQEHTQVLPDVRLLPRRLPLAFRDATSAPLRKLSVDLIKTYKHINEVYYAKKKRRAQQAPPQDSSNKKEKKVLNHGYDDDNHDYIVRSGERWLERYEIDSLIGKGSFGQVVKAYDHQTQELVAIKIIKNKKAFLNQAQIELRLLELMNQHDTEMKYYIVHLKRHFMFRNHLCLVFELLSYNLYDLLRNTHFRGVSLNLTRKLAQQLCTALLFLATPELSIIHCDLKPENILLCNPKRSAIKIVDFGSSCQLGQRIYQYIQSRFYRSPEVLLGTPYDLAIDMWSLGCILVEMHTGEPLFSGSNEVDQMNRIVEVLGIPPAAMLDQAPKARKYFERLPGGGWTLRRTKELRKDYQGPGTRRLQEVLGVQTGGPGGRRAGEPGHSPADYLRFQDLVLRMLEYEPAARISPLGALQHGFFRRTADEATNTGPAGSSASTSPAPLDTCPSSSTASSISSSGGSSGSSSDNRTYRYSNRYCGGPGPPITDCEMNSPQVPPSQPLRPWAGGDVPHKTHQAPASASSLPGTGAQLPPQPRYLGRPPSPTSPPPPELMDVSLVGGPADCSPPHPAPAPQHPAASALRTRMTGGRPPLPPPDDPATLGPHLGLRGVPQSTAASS
The test is described as follows: Radiometric protein kinase assay (33PanQinase Activity Assay), DYRK1B. The note with it: read-out: IC50 on DYRK1B (most potent DYRK1B inhibitors). As to the method:
(§2) Assays were performed by ProQinase GmbH (Engesserstr. 4, D-79108 Freiburg, Germany. www.proqinase.com). The IC50 profile of all compounds was determined using 12 protein kinases (CDK2/cyclin E, CK1ε, CLK1, 2, 3, 4, DYRK1A, 1B, 2, 3, 4, GSK3β).
(§3) The compounds were provided as […] in 100% DMSO. Prior to testing, the 1 μM stock solutions were subjected to a serial, semi-logarithmic dilution using 100% DMSO as a solvent. […] In the process, 90 μl H2O were added to each well of each compound dilution plate. To minimize potential precipitation, the H2O was added to each plate only a few minutes before the transfer of the compound solutions into the assay plates. The plate was shaken thoroughly, resulting in a compound dilution plate/10% DMSO.
(§4) For the assays (see below), 5 μL solution from each well of the compound dilution plates/10% DMSO were transferred into the assay plates. The final volume of the assay was 50 μL. All compounds were tested at 10 final assay concentrations in the range from 10 μM to 30 nM. The final DMSO concentration in the reaction cocktails was 1% in all cases.
(§5) All protein kinases provided by ProQinase were expressed in Sf9 insect cells or in E. coli as recombinant GST-fusion proteins or His-tagged proteins, either as full-length or enzymatically active fragments. All kinases were produced from human cDNAs and purified by either GSH-affinity chromatography or immobilized metal. Affinity tags were removed from a number of kinases during purification. The purity of the protein kinases was examined by SDS-PAGE/Coomassie staining, the identity was checked by mass spectroscopy.
(§6) A radiometric protein kinase assay (33PanQinase® Activity Assay) was used for measuring the kinase activity of the 12 protein kinases. All kinase assays were performed in 96-well FlashPlates™ from PerkinElmer (Boston, MA, USA) in a 50 μL reaction volume. The reaction cocktail was pipetted in four steps in the following order: • 25 μL of assay buffer (standard buffer/[γ-^33P]-ATP), • 10 μL of ATP solution (in H2O), • 5 μL of test compound (in 10% DMSO), • 10 μL of enzyme/substrate mixture.
(§7) The reaction cocktails were incubated at 30° C. for 60 minutes. The reaction was stopped with 50 μL of 2% (v/v) H3PO4, plates were aspirated and washed two times with 200 μL 0.9% (w/v) NaCl. Incorporation of ^33Pi was determined with a microplate scintillation counter (Microbeta, Wallac). The IC50 values for all compounds were calculated from the dose response curves
(§8) As a parameter for assay quality, the Z′-factor (Zhang et al., J. Biomol. Screen. 2: 67-73, 1999) for the low and high controls of each assay plate (n=8) was used. ProQinase's criterion for repetition of an assay plate is a Z′-factor below 0.4 (Iversen et al., J. Biomol. Screen. 3: 247-252, 2006).

The next test deals with T5, DYRK2 (Homo sapiens, UniProt Q92630).
T5 construct: GST-fusion or His-tag (not specified per kinase); purchased ProQinase GmbH; host or cells: Sf9 insect cells or E. coli (not specified per kinase)
T5 sequence (Q92630 1-601): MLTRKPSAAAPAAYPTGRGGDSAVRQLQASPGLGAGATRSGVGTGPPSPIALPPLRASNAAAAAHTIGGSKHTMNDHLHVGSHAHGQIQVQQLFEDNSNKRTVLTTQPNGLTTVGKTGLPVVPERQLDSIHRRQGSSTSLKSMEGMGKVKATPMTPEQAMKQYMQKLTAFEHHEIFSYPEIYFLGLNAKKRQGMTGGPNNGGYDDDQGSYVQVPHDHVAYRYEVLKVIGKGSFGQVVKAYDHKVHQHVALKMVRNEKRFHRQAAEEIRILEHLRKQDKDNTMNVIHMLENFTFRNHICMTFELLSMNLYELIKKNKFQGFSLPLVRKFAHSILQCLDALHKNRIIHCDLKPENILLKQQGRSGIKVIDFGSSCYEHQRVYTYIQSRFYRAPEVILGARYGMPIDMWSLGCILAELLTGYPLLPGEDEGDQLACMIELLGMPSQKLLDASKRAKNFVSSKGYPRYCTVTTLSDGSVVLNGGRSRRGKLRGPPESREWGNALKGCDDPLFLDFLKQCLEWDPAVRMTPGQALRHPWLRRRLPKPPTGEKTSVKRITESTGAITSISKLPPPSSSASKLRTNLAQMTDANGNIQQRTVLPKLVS
The experiment in a line: Radiometric protein kinase assay (33PanQinase Activity Assay), DYRK2. To be noted: read-out: IC50 on DYRK2 (most potent DYRK2 inhibitors). As to the method: as §2, §3, §4, §5, §6, §7, §8

For another test, the target named is T6, DYRK1A (Homo sapiens, UniProt Q13627).
T6 construct: GST-fusion or His-tag (not specified per kinase); purchased ProQinase GmbH; host or cells: Sf9 insect cells or E. coli (not specified per kinase)
The experiment in a line: Radiometric protein kinase assay (33PanQinase Activity Assay), DYRK1A. In short, it runs like this: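 Recombinant human kinase, expressed in Sf9 or E. coli, in a radiometric [γ-33P]-ATP assay at 30 °C for 60 min. Compounds tested at 10 concentrations from 10 μM to 30 nM, 1% DMSO final. 33Pi incorporation measured by scintillation counting; IC50 from dose-response curves.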

T1 sequence (P49759 whole entry, the tested form may be a part): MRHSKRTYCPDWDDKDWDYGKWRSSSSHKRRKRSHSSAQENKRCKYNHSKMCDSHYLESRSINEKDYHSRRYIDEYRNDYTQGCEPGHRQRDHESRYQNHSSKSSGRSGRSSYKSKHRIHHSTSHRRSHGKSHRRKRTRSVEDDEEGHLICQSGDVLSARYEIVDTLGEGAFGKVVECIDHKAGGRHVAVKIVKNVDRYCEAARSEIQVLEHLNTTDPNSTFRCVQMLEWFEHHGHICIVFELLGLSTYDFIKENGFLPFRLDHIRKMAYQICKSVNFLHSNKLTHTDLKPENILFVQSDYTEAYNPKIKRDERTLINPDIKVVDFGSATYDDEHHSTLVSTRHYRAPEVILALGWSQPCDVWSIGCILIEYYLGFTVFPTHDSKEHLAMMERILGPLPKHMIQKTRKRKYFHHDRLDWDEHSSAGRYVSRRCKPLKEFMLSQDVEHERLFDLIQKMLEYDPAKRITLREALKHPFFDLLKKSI

In the case of `O=C1NC(NC23CC4CC(CC(O)(C4)C2)C3)=N/C1=C\c1ccc2ncccc2c1` [Compound 50, (4Z)-2-[(3-hydroxy-1-adamantyl)amino]-4-(6-quinolylmethylene)-1H-imidazol-5-one], the IC50 at CLK1 (IC50 class A to E) was 10 to 25 nM; on CLK1 (class by IC50 on CLK1, from dose-response curves), 10 to 25 nM; on CLK4, at most 10 nM; on CLK2, at most 100 nM; on DYRK1B, at most 10 nM; on DYRK2 it was at most 250 nM. The IC50 was at most 5 nM on DYRK1A (IC50 class A to E, read-out: Potency Class DYRK1A); below 5 nM on DYRK1A (class by IC50 on DYRK1A, from dose-response curves, read-out: Potency Class DYRK1A); at most 10 nM on DYRK1A (read-out: IC50 on DYRK1A (most potent DYRK1A inhibitors)). For the same compound, on DYRK1A (ratio of IC50 on CLK1 over IC50 on DYRK1A), the “Selectivity Class DYRK1A vs. CLK1” value is “II (ratio between 2 and 10 fold)”. On DYRK1A (ratio of IC50 on DYRK1B over IC50 on DYRK1A), the “Selectivity Class DYRK1A vs. DYRK1B” value is “II (ratio between 2 and 10 fold)”.
